What was measured:
[1] = molecular target: T1, human acetyl-CoA carboxylase 2 (ACC2) (Homo sapiens, UniProt O00763); assay: Acetyl-CoA carboxylase enzyme assay (malonyl-CoA formation by LC/MS/MS); type: biochemical; conditions: recombinant human ACC2 (aa 144-2458); read-out: IC50 ACC2
T1 construct: The cDNA encoding amino acids 144 to 2458 of human acetyl-CoA carboxylase 2; made in house; host or cells: Sf9 insect cells (baculovirus, pFastBac1)
Summary of the method: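 Malonyl-CoA formation was read by LC/MS/MS MRM against a [13C3]-malonyl-CoA internal standard, after acetic acid quench. The enzyme was baculovirus/Sf9-expressed human ACC2 residues 144–2458, given 15 minutes room-temperature compound preincubation in HEPES pH 7.5 buffer with MgCl2, citrate and DTT. Substrate solution held 50 μM acetyl-CoA, 120 μM ATP and 2 mM KHCO3.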

[2] = tested on: HCVcc genotype 2a (JFH-1 strain) virus; assay: HCV assay: JFH-1 rLuc infection of Huh 7.5 cells, renilla luciferase readout; type: cell-based; conditions: Hepatitis C virus, Huh7.5; JFH-1 rLuc virus, MOI=0.01, Huh 7.5 cells, 72 hours, luciferase activity reduced by 50%
Protocol: (§1) The effect of compounds on HCV infection was determined in vitro using cell cultured (HCVcc) genotype 2a (JFH-1 strain) virus. A renilla luciferase reporter gene was inserted in the viral genome, the expression of which was under the control of HCV 5′UTR (JFH-1^rLuc). Thus, the inhibition of HCV infection or replication can be indirectly measured by the reduction of luciferase activity in the cells. A specifically adapted hepatoma cell line, Huh 7.5, which allowed higher infectivity of HCV in vitro, was cultured in Dulbecco's modified Eagle's medium (DMEM) supplemented with 2 mM L-glutamine, 0.1 mM non-essential amino acids and 10% heat-inactivated fetal bovine serum. The cells were infected with JFH-1^rLuc virus at an MOI=0.01 and were treated at the same time with serially diluted compounds. After 72 hours, luciferase activities in compound-treated cells were measured using the Renilla Luciferase Assay System (Promega) and were compared to those in untreated control cells. Concentration-dependent inhibition curves were generated, from which EC50 values, the concentrations of compounds at which luciferase activities were reduced by 50% relative to untreated control, were calculated. In parallel, cytotoxicity of compounds was determine by measuring the viability of compound-treated cells using CellTiter 96® AQueous One Solution Cell Proliferation Assay (Promega). CC50 represented the concentration of the compound at which cell viability was reduced by 50% compared to untreated control.

[3] = in vitro; type: cell-based; conditions: human
Protocol: as §1

T1 sequence (O00763 144-2458): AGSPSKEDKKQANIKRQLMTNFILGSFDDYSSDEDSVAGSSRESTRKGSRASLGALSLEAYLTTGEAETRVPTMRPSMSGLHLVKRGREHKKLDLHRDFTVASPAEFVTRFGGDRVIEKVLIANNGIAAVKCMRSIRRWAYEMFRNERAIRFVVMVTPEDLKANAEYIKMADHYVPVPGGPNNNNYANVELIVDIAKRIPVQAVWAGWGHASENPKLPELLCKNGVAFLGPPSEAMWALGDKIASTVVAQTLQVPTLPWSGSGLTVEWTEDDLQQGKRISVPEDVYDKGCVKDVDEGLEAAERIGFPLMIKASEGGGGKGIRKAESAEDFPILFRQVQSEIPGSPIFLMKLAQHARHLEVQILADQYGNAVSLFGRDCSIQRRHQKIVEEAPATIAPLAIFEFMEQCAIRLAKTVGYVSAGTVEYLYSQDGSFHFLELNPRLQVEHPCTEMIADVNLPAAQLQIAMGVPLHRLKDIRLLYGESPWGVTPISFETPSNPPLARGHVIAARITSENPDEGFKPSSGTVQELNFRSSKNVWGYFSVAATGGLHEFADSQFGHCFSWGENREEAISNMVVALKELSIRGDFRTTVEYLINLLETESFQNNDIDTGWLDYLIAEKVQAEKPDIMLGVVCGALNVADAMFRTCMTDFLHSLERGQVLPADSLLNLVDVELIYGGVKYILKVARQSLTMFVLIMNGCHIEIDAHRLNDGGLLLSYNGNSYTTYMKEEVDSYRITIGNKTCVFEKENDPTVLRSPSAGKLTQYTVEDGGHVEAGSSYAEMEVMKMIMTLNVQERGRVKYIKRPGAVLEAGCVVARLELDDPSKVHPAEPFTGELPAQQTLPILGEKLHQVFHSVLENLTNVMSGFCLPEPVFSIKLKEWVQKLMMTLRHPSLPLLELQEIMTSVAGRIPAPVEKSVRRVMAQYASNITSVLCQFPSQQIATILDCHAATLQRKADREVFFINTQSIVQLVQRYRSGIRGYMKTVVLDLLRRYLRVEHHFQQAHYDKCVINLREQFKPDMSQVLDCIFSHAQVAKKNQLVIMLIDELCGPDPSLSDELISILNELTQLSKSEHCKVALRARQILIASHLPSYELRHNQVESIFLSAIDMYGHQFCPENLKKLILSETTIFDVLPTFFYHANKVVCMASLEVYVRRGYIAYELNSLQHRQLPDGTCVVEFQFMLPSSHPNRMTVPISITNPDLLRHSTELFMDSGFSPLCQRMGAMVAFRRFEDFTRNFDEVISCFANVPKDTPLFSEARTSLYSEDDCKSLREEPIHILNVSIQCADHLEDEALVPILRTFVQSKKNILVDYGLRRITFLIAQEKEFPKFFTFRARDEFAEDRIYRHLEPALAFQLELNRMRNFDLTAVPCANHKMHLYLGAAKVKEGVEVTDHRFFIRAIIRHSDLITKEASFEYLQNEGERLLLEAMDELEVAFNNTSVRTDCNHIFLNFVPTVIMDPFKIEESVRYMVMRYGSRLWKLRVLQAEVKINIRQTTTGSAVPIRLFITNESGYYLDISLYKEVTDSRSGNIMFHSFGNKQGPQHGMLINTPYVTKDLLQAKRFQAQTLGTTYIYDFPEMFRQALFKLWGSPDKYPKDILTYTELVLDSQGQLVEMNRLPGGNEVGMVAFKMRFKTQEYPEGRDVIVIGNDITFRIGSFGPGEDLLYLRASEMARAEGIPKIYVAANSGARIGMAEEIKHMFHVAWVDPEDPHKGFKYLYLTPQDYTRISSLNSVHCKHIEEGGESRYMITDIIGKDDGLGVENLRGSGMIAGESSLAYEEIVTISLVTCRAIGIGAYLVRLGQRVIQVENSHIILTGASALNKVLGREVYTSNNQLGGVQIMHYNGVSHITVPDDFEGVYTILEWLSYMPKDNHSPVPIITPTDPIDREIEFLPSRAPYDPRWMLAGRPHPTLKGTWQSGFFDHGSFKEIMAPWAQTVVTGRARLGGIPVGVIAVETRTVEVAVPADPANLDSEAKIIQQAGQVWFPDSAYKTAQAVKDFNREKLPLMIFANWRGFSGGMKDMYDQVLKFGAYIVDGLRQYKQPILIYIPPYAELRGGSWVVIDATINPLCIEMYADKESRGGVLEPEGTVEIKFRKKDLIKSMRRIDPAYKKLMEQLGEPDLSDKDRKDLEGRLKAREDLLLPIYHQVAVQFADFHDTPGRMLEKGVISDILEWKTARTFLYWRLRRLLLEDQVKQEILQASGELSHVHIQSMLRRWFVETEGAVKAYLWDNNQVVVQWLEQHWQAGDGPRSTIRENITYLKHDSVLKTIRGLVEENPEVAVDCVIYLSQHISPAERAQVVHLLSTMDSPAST

| Compound | IC50 [1] [nM] | EC50 [2] [nM] | CC50 at 72 h [3] [nM] |
| --- | --- | --- | --- |
| CC(C)[C@H]1COCCN1C(=O)[C@H]1CC[C@H](NS(=O)(=O)c2ccc3c(Cl)c(-c4ccc(CCC(=O)O)cc4)n(C)c3c2)CC1 [Example 25, 3-(4-(3-chloro-6-(N-((1S,4r)-4-((S)-3-isopropylmorpholine-4-carbonyl)cyclohexyl)sulfamoyl)-1-methyl-H-indol-2-yl)phenyl)propanoic acid] | < 10 | 680 | > 33000 |
| Cn1c(-c2ccc(CCC(=O)O)cc2)c(Cl)c2ccc(S(=O)(=O)N[C@H]3CC[C@H](C(=O)N4CCOC[C@@H]4C4CC4)CC3)cc21 [Example 28, 3-(4-(3-chloro-6-(N-((1S,4r)-4-((S)-3-cyclopropylmorpholine-4-carbonyl)cyclohexyl)sulfamoyl)-1-methyl-1H-indol-2-yl)phenyl)propanoic acid] | < 10 | 510 | > 33000 |
| CC(C)[C@H]1COCCN1C(=O)[C@H]1CC[C@H](NS(=O)(=O)c2ccc3cc(-c4ccc(CCC(=O)O)cc4)n(C)c3c2)CC1 [Example 29, 3-(4-(6-(N-((1S,4r)-4-((S)-3-isopropylmorpholine-4-carbonyl)cyclohexyl)sulfamoyl)-1-methyl-1H-indol-2-yl)phenyl)propanoic acid] | < 10 | 2420 | > 33000 |
| COCCc1ccc(-c2cc3ccc(S(=O)(=O)N[C@H]4CC[C@H](C(=O)N5CCOC[C@@H]5C)CC4)cc3[nH]2)cc1 [Example 30, 2-(4-(2-methoxyethyl)phenyl)-N-((1S,4r)-4-((S)-3-methylmorpholine-4-carbonyl)cyclohexyl)-1H-indole-6-sulfonamide] | 10 | 710 | > 33000 |
| COCCc1ccc(-c2[nH]c3cc(S(=O)(=O)N[C@H]4CC[C@H](C(=O)N5CCOC[C@@H]5C)CC4)ccc3c2Cl)cc1 [Example 31, 3-chloro-2-(4-(2-methoxyethyl)phenyl)-N-((1S,4r)-4-((S)-3-methylmorpholine-4-carbonyl)cyclohexyl)-1H-indole-6-sulfonamide] | < 10 | 140 | 24000 |
| C[C@@H](NC(=O)[C@H]1CC[C@H](NS(=O)(=O)c2cnc3c(c2)N(C(=O)OCCOCc2ccccc2)CCN3)CC1)c1ccc(F)cc1 [Example 208, 2-(benzyloxy)ethyl 7-(N-((1R,4r)-4-((R)-1-(4-fluorophenyl)ethylcarbamoyl)cyclohexyl)sulfamoyl)-3,4-dihydropyrido[3,2-b]pyrazine-1(2H)-carboxylate] | 595 | 4740 | > 16700 |
| CCOc1ccc2cc(S(=O)(=O)N[C@H]3CC[C@H](C(=O)N[C@H](COC(=O)[C@@H](NC)C(C)C)c4ccccc4)CC3)ccc2n1 [Example 272, (S)-((S)-2-((1r,4S)-4-(2-ethoxyquinoline-6-sulfonamido)cyclohexanecarboxamido)-2-phenylethyl) 3-methyl-2-(methylamino)butanoate] | 175 | 14100 | > 16700 |
| Cn1c(-c2ccccc2)cc2ccc(S(=O)(=O)N[C@H]3CC[C@H](C(=O)N4CCN(c5ncccn5)CC4)CC3)cc21 [Example 431, 1-methyl-2-phenyl-N-((1r,4r)-4-(4-(pyrimidin-2-yl)piperazine-1-carbonyl)cyclohexyl)-1H-indole-6-sulfonamide] | 130 | 2230 | > 33000 |
| Cn1c(C2CC2)cc2ccc(S(=O)(=O)N[C@H]3CC[C@H](C(=O)N4CCOC[C@@H]4C4CC4)CC3)cc21 [Example 458, 2-cyclopropyl-N-((1S,4r)-4-((S)-3-cyclopropylmorpholine-4-carbonyl)cyclohexyl)-1-methyl-1H-indole-6-sulfonamide] | 35 | 240 | > 33000 |
| Cn1c(C2CC2)cc2ccc(S(=O)(=O)N[C@H]3CC[C@H](C(=O)NC(C4CC4)C4CC4)CC3)cc21 [Example 459, (1r,4r)-4-(2-cyclopropyl-1-methyl-1H-indole-6-sulfonamido)-N-(dicyclopropylmethyl)cyclohexanecarboxamide] | 630 | 210 | 26000 |
| COC(=O)CCc1ccc(-c2cc3ccc(S(=O)(=O)N[C@H]4CC[C@H](C(=O)N5CCOC[C@@H]5C5CC5)CC4)cc3n2C)cc1 [Example 473, methyl 3-(4-(6-(N-((1S,4r)-4-((S)-3-cyclopropylmorpholine-4-carbonyl)cyclohexyl)sulfamoyl)-1-methyl-1H-indol-2-yl)phenyl)propanoate] | < 10 | 200 | > 33000 |
| O=C([C@H]1CC[C@H](NS(=O)(=O)c2ccc3c(Cl)c(-c4ccccc4)[nH]c3c2)CC1)N1CCOC[C@@H]1C1CC1 [Example 474, 3-chloro-N-((1S,4r)-4-((S)-3-cyclopropylmorpholine-4-carbonyl)cyclohexyl)-2-phenyl-1H-indole-6-sulfonamide] | < 10 | 29 | > 67000 |
| C[C@@H]1CN(C(=O)[C@H]2CC[C@H](NS(=O)(=O)c3ccc4c(Cl)c(-c5ccccc5)[nH]c4c3)CC2)C[C@H](C)O1 [Example 477, 3-chloro-N-((1R,4r)-4-((2S,6R)-2,6-dimethylmorpholine-4-carbonyl)cyclohexyl)-2-phenyl-1H-indole-6-sulfonamide] | < 10 | 40 | 12000 |
| COCCN(C(=O)[C@H]1CC[C@H](NS(=O)(=O)c2ccc3[nH]c(-c4ccccc4)nc3c2)CC1)C1CCCCC1 [Example 676, (1r,4R)-N-cyclohexyl-N-(2-methoxyethyl)-4-(2-phenyl-1H-benzo[d]imidazole-5-sulfonamido)cyclohexanecarboxamide] | 23 |  |  |
| C[C@@H](NC(=O)[C@H]1CC[C@H](NS(=O)(=O)c2ccc3ccccc3c2)CC1)c1ccc(F)cc1 [Example 677, (1r,4R)-N-((R)-1-(4-fluorophenyl)ethyl)-4-(naphthalene-2-sulfonamido)cyclohexanecarboxamide] | 10 |  |  |
| C[C@@H](NC(=O)[C@H]1CC[C@H](NS(=O)(=O)c2cccc3ccccc23)CC1)c1ccc(F)cc1 [Example 678, (1r,4R)-N-((R)-1-(4-fluorophenyl)ethyl)-4-(naphthalene-1-sulfonamido)cyclohexanecarboxamide] | 433 |  |  |
| COCC[C@@H](NC(=O)[C@H]1CC[C@H](NS(=O)(=O)c2ccc3c(ccn3C)c2)CC1)c1ccccc1 [Example 679, (1r,4R)-N-((R)-3-methoxy-1-phenylpropyl)-4-(1-methyl-1H-indole-5-sulfonamido)cyclohexanecarboxamide] | 110 |  |  |
| CC(NC(=O)[C@H]1CC[C@H](NS(=O)(=O)c2ccc3ccccc3c2)CC1)c1cccnc1 (some centres unmarked) [Example 680, (1r,4r)-4-(naphthalene-2-sulfonamido)-N-(1-(pyridin-3-yl)ethyl)cyclohexanecarboxamide] | 240 |  |  |
| CC(NC(=O)[C@H]1CC[C@H](NS(=O)(=O)c2ccc3cc(Cl)ccc3c2)CC1)c1cccnc1 (some centres unmarked) [Example 681, (1r,4r)-4-(6-chloronaphthalene-2-sulfonamido)-N-(1-(pyridin-3-yl)ethyl)cyclohexanecarboxamide] | 142 |  |  |
| C[C@@H](NC(=O)[C@H]1CC[C@H](NS(=O)(=O)c2ccc3ccccc3c2)CC1)c1cccnc1 [Example 682, (1r,4R)-4-(naphthalene-2-sulfonamido)-N-((R)-1-(pyridin-3-yl)ethyl)cyclohexanecarboxamide] | 144 |  |  |
| C[C@H](NC(=O)[C@H]1CC[C@H](NS(=O)(=O)c2ccc3ccccc3c2)CC1)c1cccnc1 [Example 683, (1r,4S)-4-(naphthalene-2-sulfonamido)-N-((S)-1-(pyridin-3-yl)ethyl)cyclohexanecarboxamide] | > 35000 |  |  |
| C[C@@H](NC(=O)[C@H]1CC[C@H](NS(=O)(=O)c2ccc3cc(Cl)ccc3c2)CC1)c1cccnc1 [Example 684, (1r,4R)-4-(6-chloronaphthalene-2-sulfonamido)-N-((R)-1-(pyridin-3-yl)ethyl)cyclohexanecarboxamide] | 180 |  |  |
| O=S(=O)(N[C@H]1CC[C@H](c2nnc(C3CCCCC3)o2)CC1)c1ccc2c(c1)CNCC2 [Example 685, N-((1r,4r)-4-(5-cyclohexyl-1,3,4-oxadiazol-2-yl)cyclohexyl)-1,2,3,4-tetrahydroisoquinoline-7-sulfonamide] | > 35000 |  |  |
| N-(4-(5-isopropyl-1,3,4-oxadiazol-2-yl)phenyl)-2-(4-morpholinophenyl)-1H-benzo[d]imidazole-5-sulfonamide [Example 591] | 1130 |  |  |

— patent publication US8697739B2, “Bicyclic acetyl-CoA carboxylase inhibitors and uses thereof” (Novartis AG, priority 2010, dated 2014)
